Structures are written as SMILES. Values after ≈ are worked out from the molar mass of the structure shown.

The values that follow come from ChEMBL document CHEMBL1149006, “Isolation and characterization of a new triterpene from Iris missouriensis” (1986).

The subject of the experiment is P388. Kind of experiment: Cytotoxicity against mouse P388 cells. The format is functional. Conditions: read-out: ED50 (the source's name).

`CC[C@H](/C=C/[C@@H](C)[C@H]1CC[C@H]2[C@@H]3[C@@H](O)C=C4C[C@@H](O)CC[C@]4(C)[C@H]3CC[C@]12C)C(C)C`: the EC50 turned out to be 0.1 µg/mL (≈ 0.233 µM).

For `CC[C@H](CC[C@@H](C)[C@H]1CC[C@H]2[C@@H]3[C@@H](O)C=C4C[C@@H](O)CC[C@]4(C)[C@H]3CC[C@]12C)C(C)C`, the EC50 is 0.2 µg/mL (≈ 0.464 µM).
